PMC13586173, “Synthetic cannabinoid receptor agonists inhibit the cardiac voltage-gated potassium channel hERG” (Acta Pharmacologica Sinica, 2026)
Read-outs that look alike come from different tables or passages of the source.

Experiments:
KV7.1/KCNE1 = KV7.1/KCNE1 (Homo sapiens, UniProt P51787); assay: Automated patch-clamp (APC, population patch), CHO cells stably expressing human KV7.1/KCNE1; format: cell-based; conditions: for KV7.1/KCNE1 channel Efficacy (max reduction in Gmax) Gmin: best fit, 1 = no reduction of Gmax, 0 = complete reduction
Procedure: Both hERG and KV7.1/KCNE1 contribute to cardiomyocyte repolarization (Fig. 1g). Inhibition of KV7.1/KCNE1 alone can be proarrhythmic. Moreover, under conditions with impaired hERG function, upregulation of KV7.1/KCNE1 has been proposed to partially compensate for the loss of hERG [38, 39]. […] To assess if SCRAs also affect KV7.1/KCNE1, we used mammalian CHO cells stably expressing human KV7.1/KCNE1. […] At 10 µM, 7 of the SCRAs caused a significant positive shift in V50 (Fig. 5e), with the largest shift induced by MDMB-[…] (ΔV50 = +10.3 ± 1.6 mV).
Automated patch-clamp recordings were performed at 22 °C.
For the KV7.1/KCNE1 voltage ladder protocol (SI Table VII) the solutions were present for 60 s before recording started. KV7.1/KCNE1 cells were kept at a holding voltage of −90 mV, with brief hyperpolarizing steps to −100 mV for 540 ms (to calculate ohmic leakage). […] The time between compound application and the first voltage protocol was 60 s. Time between sweeps was 15 s. The voltage ladder protocol was executed every 220 s.
For Gmax (rel.), N was set to –1. For ΔV50, N was set to 1.

hERG [1] = conditions: cited from earlier work
hERG (KV11.1) = hERG (KV11.1) (Homo sapiens, UniProt Q12809); assay: Automated planar patch-clamp (APC, QPatch II 48), voltage-ladder protocol, CHO cells stably expressing human hERG
Description: To assess the effect of a large set of SCRAs on hERG (see SI Table I and SI Fig. S1 for a list of the 36 included SCRAs and corresponding structures), we used the automated planar patch-clamp (APC) technique on mammalian Chinese hamster ovary (CHO) cells stably expressing human hERG. […] We employed a voltage-ladder protocol to obtain information on SCRA effects on the channel’s voltage dependence of activation (V50) and maximal conductance (Gmax) (both determined from Boltzmann fits of the instantaneous tail currents; see Methods for details).
Stably expressing cell lines “CHO-hERG DUO” (here referred to as hERG; gene: KCNH2) and “CHO-KVLQT1/mink” (here referred to as KV7.1/KCNE1; gene: KCNQ1/KCNE1), (B’SYS GmBH, Witterswil, Switzerland) were used to study whole-cell K^+ currents on a QPatch II 48 APC system (Sophion Bioscience A/S, Ballerup, Denmark). Cell culture and passaging were performed in accordance with standard operating procedures. Cells were harvested in serum-free medium with Detachin^TM (Genlantis, CA, USA) immediately prior to experiments. For MPC on transient cell lines, CHO-K1 CCL-61 cells (ATCC, Manassas, VA, USA) were cultured in Ham’s F-12 medium supplemented with 10% fetal bovine serum (FBS) and 100 U/mL penicillin–100 µg/mL streptomycin (Gibco, Thermo Fisher Scientific, Waltham, MA, USA). Transfection was carried out using JetOPTIMUS® reagent (Polyplus, Strasbourg, France) according to the manufacturer’s protocol. Briefly, 80,000 cells were seeded per well in a 12-well plate and transfected with 300 ng of pcDNA3-GFP plasmid, 700 ng of pcDNA3-hERG plasmid with either the wild-type or mutant channels (S624A, S649A, or Y652A), and […] of JetOPTIMUS. After 8 h, cells were detached and reseeded at a density of 30,000 cells per well onto several poly-D-lysine-coated glass coverslips placed in a 12-well plate. For the CB1 receptor activity assay, the AequoScreen® recombinant Chinese hamster ovary (CHO) K1 cell line, stably expressing the human CB1 receptor (ES-110-A), was used (Revvity, Sollentuna, Sweden).
Automated patch-clamp recordings were performed at 22 °C. Freshly harvested cell suspensions (2–3 million cells/mL) were prepared for experiments by the QPatch II 48 automated cell preparation unit. Cells were centrifuged for 150 s at 150 × g and washed twice with the extracellular recording solution. Cells were handled by the integrated pipetting robot and added to the 48 experiment sites on the planar patch-clamp consumable QPlate. Each experiment site contained an individual pair of recording electrodes and a silicon/glass biochip embedded in the flow channels. Single-cell patch recordings (n = 1 is defined as one single-cell patch) and population patch recordings (up to 10 cells per well, n = 1 is defined as one population patch) were performed for hERG and for KV7.1/KCNE1, respectively. Cells were applied, positioned and sealed to the patch holes by a mild suction protocol; whole-cell access was then achieved by a stronger suction pulse.
The intracellular solution contained (in mM): 100 KCl, 4.3 CaCl2, 1.4 MgCl2, 25/10 KOH/EGTA, 24 KF, 10 HEPES, and 4 Mg-ATP (hERG) or 4 Na-ATP (KV7.1/KCNE1). […] The compounds were pre-diluted in DMSO, and the final concentration of DMSO (0.3%) was equal in all recording solutions to control for vehicle effects. The compounds made no contact with plastics following dilution in extracellular solution.
An overview of experimental conditions is provided in SI Table VII, Square voltage pulses in a voltage ladder protocol were used to study current/voltage (I(V)) relationships. Each voltage protocol was first run three times in the presence of vehicle (extracellular solution supplemented with 0.3% DMSO), the 3rd serving as the baseline. Voltage protocols were repeated in the presence of 4 cumulatively rising concentrations of test compound, followed by application of vehicle for recovery.

human CB1 receptor = biological target: T1, human CB1 receptor (Homo sapiens, UniProt P21554); assay: AequoScreen intracellular calcium release assay, CHO-K1 cells stably expressing CB1; format: cell-based; conditions: n ≥ 3 (JWH-030 n = 2); for EC50: CB1 receptor Potency EC50, normalized to median EC50 of JWH-018; for CB1 receptor Efficacy Emax: normalized to maximum of JWH-018
T1 construct: host or cells: CHO-K1 stably expressing CB1, apoaequorin and Gα16

[2] = rats; cited from earlier work
hERG [3] = conditions: cited from earlier work; remark: listed apart in the source
[4] = experimentally observed effect of 10 µM, used in ORd simulation

T1 sequence (P21554 whole entry): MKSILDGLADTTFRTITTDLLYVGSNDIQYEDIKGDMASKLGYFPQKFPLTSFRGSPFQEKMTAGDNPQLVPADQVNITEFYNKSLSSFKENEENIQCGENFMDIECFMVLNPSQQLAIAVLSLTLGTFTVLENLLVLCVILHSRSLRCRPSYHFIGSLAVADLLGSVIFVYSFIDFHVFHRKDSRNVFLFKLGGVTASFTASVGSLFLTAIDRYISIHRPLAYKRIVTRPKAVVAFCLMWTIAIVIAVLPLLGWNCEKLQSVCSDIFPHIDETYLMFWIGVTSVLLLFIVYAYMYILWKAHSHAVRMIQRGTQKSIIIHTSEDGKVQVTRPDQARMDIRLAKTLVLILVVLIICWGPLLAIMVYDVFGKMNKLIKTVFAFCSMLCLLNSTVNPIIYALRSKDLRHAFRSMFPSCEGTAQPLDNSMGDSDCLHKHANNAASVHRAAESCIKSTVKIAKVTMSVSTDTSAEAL
Chain of KV7.1/KCNE1 (P51787 whole entry): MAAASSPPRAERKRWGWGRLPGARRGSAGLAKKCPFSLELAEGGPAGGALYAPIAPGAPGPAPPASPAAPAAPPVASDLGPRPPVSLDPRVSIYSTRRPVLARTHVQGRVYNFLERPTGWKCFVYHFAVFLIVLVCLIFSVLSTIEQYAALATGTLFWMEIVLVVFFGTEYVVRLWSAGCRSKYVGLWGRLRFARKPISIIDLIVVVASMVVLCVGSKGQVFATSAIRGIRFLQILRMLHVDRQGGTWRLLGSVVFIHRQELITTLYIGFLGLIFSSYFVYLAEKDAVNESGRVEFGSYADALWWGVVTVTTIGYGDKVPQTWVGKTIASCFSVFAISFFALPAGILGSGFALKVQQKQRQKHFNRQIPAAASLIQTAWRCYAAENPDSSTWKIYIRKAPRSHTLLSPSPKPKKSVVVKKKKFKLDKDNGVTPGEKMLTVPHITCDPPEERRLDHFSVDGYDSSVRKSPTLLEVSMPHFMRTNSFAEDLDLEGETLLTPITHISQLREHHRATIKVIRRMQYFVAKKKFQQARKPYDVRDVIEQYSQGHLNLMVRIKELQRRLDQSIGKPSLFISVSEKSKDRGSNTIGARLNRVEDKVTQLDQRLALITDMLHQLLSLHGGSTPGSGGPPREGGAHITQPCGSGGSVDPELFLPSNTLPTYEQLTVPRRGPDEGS
Chain of hERG (KV11.1) (Q12809 whole entry): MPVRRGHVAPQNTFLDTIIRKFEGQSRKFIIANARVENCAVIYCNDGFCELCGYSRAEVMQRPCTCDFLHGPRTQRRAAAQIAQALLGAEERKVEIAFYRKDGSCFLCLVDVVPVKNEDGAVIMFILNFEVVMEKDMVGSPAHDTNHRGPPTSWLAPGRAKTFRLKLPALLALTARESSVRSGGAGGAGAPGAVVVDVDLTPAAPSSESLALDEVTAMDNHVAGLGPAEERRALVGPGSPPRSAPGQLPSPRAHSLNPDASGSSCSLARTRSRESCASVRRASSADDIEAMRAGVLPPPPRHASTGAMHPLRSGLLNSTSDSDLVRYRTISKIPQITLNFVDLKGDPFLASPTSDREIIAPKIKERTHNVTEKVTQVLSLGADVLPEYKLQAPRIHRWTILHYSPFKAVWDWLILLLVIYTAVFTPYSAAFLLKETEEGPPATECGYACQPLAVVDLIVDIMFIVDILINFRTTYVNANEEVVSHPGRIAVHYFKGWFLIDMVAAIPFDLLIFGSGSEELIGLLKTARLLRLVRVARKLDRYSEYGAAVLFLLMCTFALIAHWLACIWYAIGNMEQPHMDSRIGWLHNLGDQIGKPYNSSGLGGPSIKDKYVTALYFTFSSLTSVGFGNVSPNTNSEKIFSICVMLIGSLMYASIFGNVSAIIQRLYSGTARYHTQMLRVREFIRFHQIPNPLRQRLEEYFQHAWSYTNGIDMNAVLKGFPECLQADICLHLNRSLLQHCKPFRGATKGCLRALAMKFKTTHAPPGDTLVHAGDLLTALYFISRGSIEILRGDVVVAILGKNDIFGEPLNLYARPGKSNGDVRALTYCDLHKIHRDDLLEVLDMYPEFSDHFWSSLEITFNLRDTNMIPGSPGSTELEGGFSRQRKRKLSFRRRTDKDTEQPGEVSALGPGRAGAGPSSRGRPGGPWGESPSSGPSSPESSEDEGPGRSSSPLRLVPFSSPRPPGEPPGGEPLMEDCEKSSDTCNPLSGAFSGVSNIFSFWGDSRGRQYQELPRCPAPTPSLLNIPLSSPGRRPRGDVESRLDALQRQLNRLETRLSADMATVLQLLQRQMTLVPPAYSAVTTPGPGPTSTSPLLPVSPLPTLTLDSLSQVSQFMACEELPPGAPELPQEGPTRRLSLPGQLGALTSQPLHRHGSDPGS

Structure (SMILES)	IC50 (KV7.1/KCNE1) [µM]	Gmax effect on hERG versus KV7.1/KCNE1 (in words) (KV7.1/KCNE1; 10 µM, both channels by APC)	KV7.1/KCNE1 channel Efficacy (max reduction in Gmax) Gmin (KV7.1/KCNE1)	hERG inhibition (in words) (hERG [1])	IC50 (hERG [1]; read-out: hERG IC50, HEK293 cells, 37 °C) [µM]	IC50 (hERG (KV11.1)) [µM]	hERG channel Efficacy (max reduction in Gmax) Gmin, marked ? (hERG (KV11.1); ? Unreliable values (fit failed QC, extrapolated))	effect on Gmax of hERG (in words) (hERG (KV11.1); APC concentration-response, 1.11 to 30 µM)	EC50 (human CB1 receptor) [µM]	CB1 receptor Efficacy Emax (human CB1 receptor) [% JWH-018]	effect on KV7.1/KCNE1 (in words) (KV7.1/KCNE1; APC)	remaining IKs (KV7.1/KCNE1 Gmax) (KV7.1/KCNE1; [4]) [%]	QT interval (in words) [2]	hERG channel Efficacy (max reduction in Gmax) Gmin (hERG (KV11.1); best fit, 1 = no reduction of Gmax, 0 = complete reduction, APC, 22 °C)	remaining IKr (hERG Gmax) (hERG (KV11.1); [4]) [%]	hERG inhibition (in words) (hERG [3])	IC50 (hERG [3]; read-out: in vitro hERG IC50, test pulse 1 s) [µM]
O=C(NC12CC3CC(CC(C3)C1)C2)c1nn(CCCCCF)c2ccccc12 [5F-APINACA]	35.1	only on KV7.1/KCNE1	0	inhibit hERG	2.2	> 100	0.00	inhibitory effects on Gmax	0.0166	102							
CCCCCn1ccc(C(=O)c2cccc3ccccc23)c1 [JWH-030]	12.2		0			23.1			0.291	76.5	largest reduction in Gmax	49	prolongs the QT interval in rats	0.00	74	inhibits the voltage-gated potassium channel hERG	88.4
